Results reported in publication PMC11070402, “New antiproliferative 3-substituted oxindoles inhibiting EGFR/VEGFR-2 and tubulin polymerization” (Molecular Diversity, 2023).
Values joined by “and” are separate entries in the source; they are usually repeats but may differ in a detail not shown here. Equal entries are not always repeated. Where two headings read alike, the source gives them in different places.

Key:
[1] = system: tubulin; assay: Tubulin polymerization inhibition assay; format: biochemical
[2] = system: tubulin; design: method as in PMID 33038796; details: read-out: tubulin polymerization IC50; cited from earlier work
[3] = system: tubulin; design: method as in PMID 34832895; details: read-out: IC50 tubulin assembly; cited from earlier work
[4] = system: Human Skin Fibroblasts (HSF) cells; assay: Margin of safety: cytotoxicity on human skin fibroblasts (SRB assay); format: cell-based
Procedure: Cell viability was assessed via SRB assay. Aliquots of 100 µl cell suspension (5 × 10^3 cells) were in 96-well plates and incubated in a complete media for 24 h. […] After 72 h of drug exposure, cells were fixed by replacing media with 150 µl of 10% TCA and incubated at 4 °C for 1 h. The TCA solution was removed, and the cells were washed 5 times with distilled water. Aliquots of […] SRB solution (0.4 w/v) were added and incubated in a dark place at room temperature for 10 min. Plates were washed 3 times with 1% acetic acid and allowed to air-dry overnight. Then, 150 µl of TRIS (10 mM) was added to dissolve the protein-bound SRB stain; the absorbance was measured at 540 nm using a BMG LAB TECH®-FLUO star Omega microplate reader (Ortenberg, Germany).

[5] = system: MCF-7 (human breast cancer); assay: Cytotoxicity versus MCF-7 cell line (MTT assay); details: MCF7, read-out: MCF-7 (IC50 ± SD, uM)
[6] = molecular target: T1, EGFR (Homo sapiens, UniProt P00533); design: method as in PMID 34832895; details: cited from earlier work
T1 construct: purchased

[7] = system: VEGFR-2; details: cited from earlier work
[8] = system: EGFR^L858R/T790M; design: method as in PMID 34798457; details: cited from earlier work
[9] = molecular target: EGFR^WT kinase; design: method as in PMID 34798457; details: cited from earlier work
[10] = system: 60 human cancer cell lines; assay: NCI one-dose assay against sixty NCI cancer cell lines; format: cell-based
Procedure: (§1) All novel scaffolds 6a–j were carefully selected by the National Cancer Institute (NCI), Bethesda, USA, to elucidate their cytotoxic activity versus 60 human cancer cell lines at 10 µM as a single-dose concentration after a 48 h incubation period.
(§2) National Cancer Institution selected all the synthesized 6a–j (NCI), Bethesda, USA, for in vitro one-dose antitumor assay. The methodology protocol for the NCI anticancer screening was reported in detail elsewhere (http://www.dtp.nci.nih.gov). The anticancer assay was performed in full NCI 60 cell lines extracted from nine tumor cell lines, including leukemia, melanoma, lung, colon, CNS, ovarian, renal, prostate, and breast cancer cell lines.

[11] = system: SNB-75 cells (CNS cancer cell line); assay: NCI one-dose assay, SNB-75; format: cell-based; details: Homo sapiens; SNB-75 (CNS Cancer), 10 uM single dose; read-out: Growth inhibition %
Procedure: as §1, §2

[12] = system: NCI/ADR-RES (ovarian cancer cell line); assay: NCI one-dose assay, NCI/ADR-RES; format: cell-based; details: Homo sapiens; NCI/ADR-RES; 10 µM single dose, 48 h incubation; read-out: cell growth inhibition % (GI %)
Procedure: as §1, §2

[13] = system: HOP-92 (non-small cell lung cancer cell line); assay: NCI one-dose assay, HOP-92; format: cell-based; details: Homo sapiens; HOP-92 (Non-Small Cell Lung Cancer), 10 uM single dose; read-out: Growth inhibition %
Procedure: as §1, §2

[14] = system: UO-31; assay: NCI one-dose assay, UO-31; format: cell-based; details: Homo sapiens; UO-31 (Renal Cancer), 10 uM single dose; read-out: Growth inhibition %
Procedure: as §1, §2

[15] = system: K-562; assay: NCI one-dose assay, K-562; format: cell-based; details: Homo sapiens, K562; K-562 (Leukemia), 10 uM single dose; read-out: Growth inhibition %
Procedure: as §1, §2

[16] = system: MOLT-4; assay: NCI one-dose assay, MOLT-4; format: cell-based; details: Homo sapiens; MOLT-4 (Leukemia), 10 uM single dose; read-out: Growth inhibition %
Procedure: as §1, §2

[17] = system: SR; assay: NCI one-dose assay, SR; format: cell-based; details: Homo sapiens; SR (Leukemia), 10 uM single dose; read-out: Growth inhibition %
Procedure: as §1, §2

[18] = system: SK-MEL-5; assay: NCI one-dose assay, SK-MEL-5; format: cell-based; details: Homo sapiens; SK-MEL-5 (Melanoma), 10 uM single dose; read-out: Growth inhibition %
Procedure: as §1, §2

[19] = system: MCF-7; assay: NCI one-dose assay, MCF-7; format: cell-based, human; details: Homo sapiens, MCF7, MCF7 (Breast Cancer), 10 uM single dose; read-out: Growth inhibition %
Procedure: as §1, §2

[20] = system: T-47D; assay: NCI one-dose assay, T-47D; format: cell-based; details: Homo sapiens, T47D; T-47D (Breast Cancer), 10 uM single dose; read-out: Growth inhibition %
Procedure: as §1, §2

[21] = molecular target: colchicine-binding site; design: method as in PMID 34649064; details: read-out: competitive inhibition at the colchicine-binding site IC50; cited from earlier work
[22] = system: NCI-H23; assay: NCI one-dose assay, NCI-H23; format: cell-based; details: Homo sapiens; NCI-H23 (Non-Small Cell Lung Cancer), 10 uM single dose; read-out: Growth inhibition %
Procedure: as §1, §2

[23] = system: EGFR (T790M); design: method as in PMID 29758406; details: read-out: IC50 against EGFR (T790M); cited from earlier work
[24] = system: EGFR (L858R); design: method as in PMID 29758406; details: read-out: IC50 against EGFR (L858R); cited from earlier work
[25] = system: c-MET; design: method as in PMID 29758406; details: read-out: IC50 against c-MET; cited from earlier work
[26] = system: tubulin; design: method as in doi:10.1016/j.molstruc.2022.132345; details: read-out: anti-tubulin activity IC50; cited from earlier work
[27] = CAKI-1 (Renal Cancer), 10 uM single dose, read-out: Growth inhibition %
[28] = HCT-116 (Colon Cancer), 10 uM single dose, read-out: Growth inhibition %
[29] = IGROV-1, IGROV1 (Ovarian Cancer), 10 uM single dose, read-out: Growth inhibition %
[30] = M14 (Melanoma), 10 uM single dose, read-out: Growth inhibition %
[31] = MDA-MB-231, read-out: Growth inhibition %
[32] = NCI-H226 (Non-Small Cell Lung Cancer), 10 uM single dose, read-out: Growth inhibition %
[33] = OVCAR-3 (Ovarian Cancer), 10 uM single dose, read-out: Growth inhibition %
[34] = OVCAR-8 (Ovarian Cancer), 10 uM single dose, read-out: Growth inhibition %
[35] = PC-3 (Prostate Cancer), 10 uM single dose, read-out: Growth inhibition %
[36] = UACC-62 (Melanoma), 10 uM single dose, read-out: Growth inhibition %

T1 sequence (P00533 25-1210): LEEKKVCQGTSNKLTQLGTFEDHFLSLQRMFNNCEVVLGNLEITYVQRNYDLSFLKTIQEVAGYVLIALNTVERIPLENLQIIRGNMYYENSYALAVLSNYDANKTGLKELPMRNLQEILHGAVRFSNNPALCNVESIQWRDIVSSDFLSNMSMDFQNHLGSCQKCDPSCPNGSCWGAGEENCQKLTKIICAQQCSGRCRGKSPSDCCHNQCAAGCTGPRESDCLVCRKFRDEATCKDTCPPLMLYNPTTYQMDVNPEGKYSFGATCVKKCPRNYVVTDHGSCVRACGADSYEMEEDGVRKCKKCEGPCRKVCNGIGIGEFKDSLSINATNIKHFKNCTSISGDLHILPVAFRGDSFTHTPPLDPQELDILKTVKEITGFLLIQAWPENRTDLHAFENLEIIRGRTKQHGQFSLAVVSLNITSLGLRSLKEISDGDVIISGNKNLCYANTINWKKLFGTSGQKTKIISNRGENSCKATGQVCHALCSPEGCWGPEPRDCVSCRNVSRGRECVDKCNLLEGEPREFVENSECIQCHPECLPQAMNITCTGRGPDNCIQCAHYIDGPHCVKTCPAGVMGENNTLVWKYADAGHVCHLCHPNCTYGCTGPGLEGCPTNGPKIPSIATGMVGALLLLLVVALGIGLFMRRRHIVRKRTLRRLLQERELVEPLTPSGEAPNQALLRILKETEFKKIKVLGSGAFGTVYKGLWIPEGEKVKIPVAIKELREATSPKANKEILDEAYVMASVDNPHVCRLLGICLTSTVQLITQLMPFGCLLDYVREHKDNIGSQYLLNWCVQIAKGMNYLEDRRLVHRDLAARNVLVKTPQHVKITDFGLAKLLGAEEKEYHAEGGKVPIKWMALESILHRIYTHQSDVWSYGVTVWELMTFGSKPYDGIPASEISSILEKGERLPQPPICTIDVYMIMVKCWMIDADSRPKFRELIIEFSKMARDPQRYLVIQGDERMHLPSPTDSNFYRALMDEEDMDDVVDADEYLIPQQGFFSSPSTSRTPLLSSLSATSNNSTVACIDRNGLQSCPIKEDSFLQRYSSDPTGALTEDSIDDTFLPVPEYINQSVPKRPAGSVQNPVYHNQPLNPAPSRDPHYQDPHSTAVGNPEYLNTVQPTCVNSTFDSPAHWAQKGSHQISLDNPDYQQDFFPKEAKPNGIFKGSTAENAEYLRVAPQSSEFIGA

COc1ccc(/C=C\c2cc(OC)c(OC)c(OC)c2)cc1O [CA-4, combretastatin A4]
%inh Tub ([1]; conc 0.1 (uM printed only in the CA-4 head)): […] | %inh Tub ([1]; conc 1 (uM printed only in the CA-4 head)): […] | %inh Tub ([1]; conc 10 (uM printed only in the CA-4 head)): […] | %inh Tub ([1]; conc 100 (uM printed only in the CA-4 head)): […] | IC50 ([1]; read-out: Tubulin polymerization inhibition (IC50 ± SD)): […] | IC50 [2]: 2500 nM | IC50 [3]: […]

O=c1[nH]cc(F)c(=O)[nH]1 [5FU, 5-fluorouracil, reference compound]
IC50 ([4]; HSF, Human Skin Fibroblasts, SRB assay, 72 h exposure, read-out: HSF (IC50 ± SD)): 5450 ± 20 nM | SI (selectivity index) ([4]; SI = IC50 for HSF / IC50 for MCF-7 cells): 2.70 | IC50 [5]: 2.02 ± 0.17 µM

COc1cc(OC)c(C=C2C(=O)Nc3cc(Cl)ccc32)c(OC)c1 [XIII]
IC50 [6]: 549 nM | IC50 [3]: 1660 nM

c1nc(Nc2ccc(N3CCOCC3)cc2)cc(Nc2ccc3[nH]ccc3c2)n1 [VIII]
IC50 ([7]; read-out: IC50 against VEGFR-2): 1200 nM

C=CC(=O)Nc1cc(Nc2nccc(-c3cn(C)c4ccccc34)n2)c(OC)cc1-n1cccc1CN(C)C [V]
IC50 [8]: 1.7 nM | selectivity versus EGFR^L858R/T790M over EGFR^WT kinase [8]: about 22 folds | IC50 [9]: 37 nM

Cc1ccc(Nc2cc(Oc3ccc4[nH]ccc4c3)ncn2)cc1S(N)(=O)=O [VII]
IC50 ([7]; read-out: IC50 versus VEGFR-2): 45 nM

COc1ccc(C(=O)COc2ccc(C=C3C(=O)Nc4ccccc43)cc2)cc1 [Compound 6h, 3-{4-[2-(4-Methoxyphenyl)-2-oxoethoxy]benzylidene}indolin-2-one]
inhibition at 10 µM ([10]; BT-549 (Breast Cancer), 10 uM single dose, read-out: Growth inhibition %): 10.1% | inhibition at 10 µM [10, 27]: 26.4% | inhibition at 10 µM ([10]; CCRF-CEM (Leukemia), 10 uM single dose, read-out: Growth inhibition %): 14% | inhibition at 10 µM ([10]; HCT-15 (Colon Cancer), 10 uM single dose, read-out: Growth inhibition %): 15.2% | inhibition at 10 µM [10, 28]: 25.4% | inhibition at 10 µM ([10]; HL-60(TB) (Leukemia), 10 uM single dose, read-out: Growth inhibition %): 20.8% | inhibition at 10 µM ([10]; HS 578T (Breast Cancer), 10 uM single dose, read-out: Growth inhibition %): 11.3% | inhibition at 10 µM [10, 29]: 23.7% | inhibition at 10 µM [10, 30]: 12.1% | inhibition at 10 µM [10, 31]: 10.8% | inhibition at 10 µM [10, 32]: 15.4% | inhibition at 10 µM ([10]; NCI-H522 (Non-Small Cell Lung Cancer), 10 uM single dose, read-out: Growth inhibition %): 17.2% | inhibition at 10 µM [10, 33]: 18.3% | inhibition at 10 µM [10, 34]: 15.9% | inhibition at 10 µM [10, 35]: 36.1% | inhibition at 10 µM ([10]; RPMI-8226 (Leukemia), 10 uM single dose, read-out: Growth inhibition %): 25.4% | inhibition at 10 µM ([10]; SF-539 (CNS Cancer), 10 uM single dose, read-out: Growth inhibition %): 10.7% | inhibition at 10 µM ([10]; SK-OV-3 (Ovarian Cancer), 10 uM single dose, read-out: Growth inhibition %): 14.1% | inhibition at 10 µM [10, 36]: 31.5% | inhibition at 10 µM [11]: 23.6% | inhibition at 10 µM [12]: 43.7% | inhibition at 10 µM [13]: 11.7% | inhibition at 10 µM [14]: 37.5% | inhibition at 10 µM [15]: 39.7% | inhibition at 10 µM [16]: 34.3% | inhibition at 10 µM [17]: 19.2% | inhibition at 10 µM [18]: 17.8% | inhibition at 10 µM [19]: 41.3% | inhibition at 10 µM [20]: 26.4% | melting point: 192 to 194 °C

COc1ccc2c(/C=C(\C)C(=O)c3cc(OC)c(OC)c([Se]C)c3)c[nH]c2c1 [XI]
IC50 [21]: 1300 nM

COc1ccc(C(=O)COc2ccc(/C=C3/C(=O)Nc4cc(Cl)ccc43)cc2)cc1 [Compound 6j, (E/Z)-6-Chloro-3-{4-[2-(4-methoxyphenyl)-2-oxoethoxy]benzylidene}indolin-2-one]
inhibition at 10 µM ([10]; ACHN (Renal Cancer), 10 uM single dose, read-out: Growth inhibition %): 10.1% | inhibition at 10 µM [10, 27]: 23.2% | inhibition at 10 µM [10, 28]: 12.2% | inhibition at 10 µM ([10]; HOP-62 (Non-Small Cell Lung Cancer), 10 uM single dose, read-out: Growth inhibition %): 16.7% | inhibition at 10 µM [10, 29]: 21.5% | inhibition at 10 µM [10, 30]: 10.3% | inhibition at 10 µM [10, 31]: 12.2% | inhibition at 10 µM [10, 32]: 13.2% | inhibition at 10 µM [10, 33]: 18.1% | inhibition at 10 µM ([10]; OVCAR-4 (Ovarian Cancer), 10 uM single dose, read-out: Growth inhibition %): 11% | inhibition at 10 µM [10, 34]: 13.4% | inhibition at 10 µM [10, 35]: 33.5% | inhibition at 10 µM ([10]; U-251, U251 (CNS Cancer), 10 uM single dose, read-out: Growth inhibition %): 12.9% | inhibition at 10 µM [10, 36]: 23.8% | inhibition at 10 µM [11]: 36.7% | inhibition at 10 µM [13]: 34.8% | inhibition at 10 µM [14]: 35.9% | inhibition at 10 µM [15]: 22.8% | inhibition at 10 µM [16]: 30.3% | inhibition at 10 µM [17]: 16.7% | inhibition at 10 µM [22]: 10.5% | inhibition at 10 µM [19]: 34.4% | inhibition at 10 µM [20]: 15.6% | melting point: 165 to 167 °C

CC(C)c1ccc(Cn2cc(-c3cc(-c4ccc(Br)cc4)nc(N)n3)c3ccccc32)cc1 [IV]
IC50 [23]: 94 nM | IC50 [24]: 99 nM | IC50 [25]: 595 nM

Cc1cc(-c2cccc(-c3c[nH]c4ccccc34)n2)c2ccccc2n1 [XII]
IC50 [2]: 5000 nM

COc1cc(NC(=O)/C(C#N)=C/c2c[nH]c3ccccc23)cc(OC)c1OC [X]
IC50 [26]: 18000 nM
